The source made the active and inactive calls.
How the values were obtained:
Cytochrome P450 3A4 = Cytochrome P450 3A4 (Homo sapiens, UniProt P08684);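 note: CYP3A4 tested as one member of a cytochrome P450 panel screen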
Cytochrome P450 2C9 = Cytochrome P450 2C9 (Homo sapiens, UniProt P11712)
[1] = target: T1, Corticotropin-releasing factor receptor 2/Corticotropin-releasing factor-binding protein (Homo sapiens, UniProt P24387+Q13324); assay: activators of CRF receptor 2 with binding protein – uHTS hits, confirmation (AID 602473); format: functional; conditions: read-out: EC50_Mean
T1 sequence (Q13324 whole entry): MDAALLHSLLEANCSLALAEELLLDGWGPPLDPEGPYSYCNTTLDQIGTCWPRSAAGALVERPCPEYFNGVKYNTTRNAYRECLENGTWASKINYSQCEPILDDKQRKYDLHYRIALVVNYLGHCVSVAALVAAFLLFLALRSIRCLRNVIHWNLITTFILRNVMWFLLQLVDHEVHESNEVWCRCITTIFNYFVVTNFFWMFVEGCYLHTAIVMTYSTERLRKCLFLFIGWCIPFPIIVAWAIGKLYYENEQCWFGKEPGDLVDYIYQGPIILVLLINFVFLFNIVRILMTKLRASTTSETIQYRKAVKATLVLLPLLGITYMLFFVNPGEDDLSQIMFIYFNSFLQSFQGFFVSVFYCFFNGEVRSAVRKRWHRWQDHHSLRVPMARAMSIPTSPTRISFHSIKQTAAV
T1 sequence (P24387 whole entry): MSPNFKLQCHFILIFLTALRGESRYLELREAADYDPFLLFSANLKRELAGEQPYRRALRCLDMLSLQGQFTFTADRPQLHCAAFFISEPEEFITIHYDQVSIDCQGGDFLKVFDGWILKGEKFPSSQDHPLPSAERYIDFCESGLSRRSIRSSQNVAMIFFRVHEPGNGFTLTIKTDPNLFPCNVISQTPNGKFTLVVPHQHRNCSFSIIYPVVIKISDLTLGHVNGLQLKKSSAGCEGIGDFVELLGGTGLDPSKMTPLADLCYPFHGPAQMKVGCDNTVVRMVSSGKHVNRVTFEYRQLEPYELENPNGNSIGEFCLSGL

[2] = target: T1, Corticotropin-releasing factor receptor 2/Corticotropin-releasing factor-binding protein; assay: Dose Response confirmation of uHTS hits for small molecule antagonists of the CRF-binding protein and CRF-R2 receptor complex.; format: functional; conditions: read-out: IC50_Mean
Cytochrome P450 2C19 = Cytochrome P450 2C19 (Homo sapiens, UniProt P33261); assay: Cytochrome panel assay with activity outcomes. Panel member name: p450-cyp2c19 Compounds with AC50 equal or less than 10 uM are considered active; format: functional
Cytochrome P450 2C19, sequence (P33261 whole entry): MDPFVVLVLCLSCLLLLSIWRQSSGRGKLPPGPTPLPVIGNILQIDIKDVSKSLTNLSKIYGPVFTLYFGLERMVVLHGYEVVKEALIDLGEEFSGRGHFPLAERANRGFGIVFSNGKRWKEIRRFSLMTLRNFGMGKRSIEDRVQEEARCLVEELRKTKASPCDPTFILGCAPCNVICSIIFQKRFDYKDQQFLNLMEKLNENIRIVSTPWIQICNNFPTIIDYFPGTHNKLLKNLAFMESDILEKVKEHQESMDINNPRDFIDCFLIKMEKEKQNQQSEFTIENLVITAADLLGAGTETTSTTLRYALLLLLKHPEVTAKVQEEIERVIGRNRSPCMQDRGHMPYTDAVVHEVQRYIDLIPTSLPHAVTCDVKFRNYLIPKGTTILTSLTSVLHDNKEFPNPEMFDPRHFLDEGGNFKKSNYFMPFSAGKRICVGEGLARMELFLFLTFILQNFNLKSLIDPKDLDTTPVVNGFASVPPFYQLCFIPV

[3] = C. albicans growth with fluconazole, confirmation, fluorescence, retest (AID 2467); format: functional, cell-based
[4] = NIH-3T3 fibroblast cytotoxicity, dose response, cytotoxicity control, cell-based, fluorescence, Alamar Blue, secondary assay (AID 2327); format: functional;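 note: NIH-3T3 mouse fibroblasts cultured with fluconazole at 8 µg/mL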
Cytochrome P450 1A2 = target: T2, Cytochrome P450 1A2 (Homo sapiens, UniProt P05177);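 note: PubChem cytochrome P450 panel assay, CYP1A2 panel member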
T2 sequence (P05177 whole entry): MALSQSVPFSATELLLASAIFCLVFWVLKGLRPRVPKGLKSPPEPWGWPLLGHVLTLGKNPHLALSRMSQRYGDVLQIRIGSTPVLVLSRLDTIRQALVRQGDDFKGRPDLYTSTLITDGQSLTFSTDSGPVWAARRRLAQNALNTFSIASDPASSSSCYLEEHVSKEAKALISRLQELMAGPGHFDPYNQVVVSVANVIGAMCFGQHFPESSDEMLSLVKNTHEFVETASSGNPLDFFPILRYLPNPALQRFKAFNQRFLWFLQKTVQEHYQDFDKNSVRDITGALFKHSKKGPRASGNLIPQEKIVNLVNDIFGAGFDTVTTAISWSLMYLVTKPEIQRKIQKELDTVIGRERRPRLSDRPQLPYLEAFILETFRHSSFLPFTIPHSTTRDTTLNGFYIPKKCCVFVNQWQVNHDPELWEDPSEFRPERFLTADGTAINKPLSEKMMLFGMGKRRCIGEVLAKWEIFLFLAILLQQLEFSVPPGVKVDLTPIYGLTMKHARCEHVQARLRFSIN

Streptococcus = assay: Group A Streptococcus viability loss, dose response, counter-screen for streptokinase expression inhibitor project, luminescence, BacTiterGlo (AID 1915); format: functional, organism-based;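 note: potency for reduction of bacterial viability or growth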
[5] = test system: Streptococcus sp. 'group A'; assay: growth inhibition of control SK(-) GAS strain, dose response, counter-screen for streptokinase expression inhibitor project, luminescence, kanamycin, BacTiterGlo, confirmation (AID 1900); format: functional, organism-based
[6] = Luminescence Cell-Based Dose Response HTS to Identify Activators of Luciferase Translation or Activity in H4 […] Cells. [Related pubchem assays: 1829 (Project Summary), 1814 (Primary HTS)]; format: functional

Cytochrome P450 2C9, sequence (P11712 whole entry): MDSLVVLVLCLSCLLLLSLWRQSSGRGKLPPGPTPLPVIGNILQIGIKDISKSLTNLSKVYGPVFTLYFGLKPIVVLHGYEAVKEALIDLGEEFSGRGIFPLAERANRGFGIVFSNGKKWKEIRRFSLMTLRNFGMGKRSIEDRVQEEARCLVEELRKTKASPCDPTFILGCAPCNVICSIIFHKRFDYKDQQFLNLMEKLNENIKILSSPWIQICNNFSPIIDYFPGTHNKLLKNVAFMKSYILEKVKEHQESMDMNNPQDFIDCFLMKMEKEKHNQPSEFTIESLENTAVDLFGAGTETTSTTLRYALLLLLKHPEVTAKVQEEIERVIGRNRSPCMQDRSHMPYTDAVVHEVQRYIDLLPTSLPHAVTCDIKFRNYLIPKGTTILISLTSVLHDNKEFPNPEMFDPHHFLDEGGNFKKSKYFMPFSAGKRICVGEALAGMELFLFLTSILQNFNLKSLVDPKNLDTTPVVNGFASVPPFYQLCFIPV
Cytochrome P450 3A4, sequence (P08684 whole entry): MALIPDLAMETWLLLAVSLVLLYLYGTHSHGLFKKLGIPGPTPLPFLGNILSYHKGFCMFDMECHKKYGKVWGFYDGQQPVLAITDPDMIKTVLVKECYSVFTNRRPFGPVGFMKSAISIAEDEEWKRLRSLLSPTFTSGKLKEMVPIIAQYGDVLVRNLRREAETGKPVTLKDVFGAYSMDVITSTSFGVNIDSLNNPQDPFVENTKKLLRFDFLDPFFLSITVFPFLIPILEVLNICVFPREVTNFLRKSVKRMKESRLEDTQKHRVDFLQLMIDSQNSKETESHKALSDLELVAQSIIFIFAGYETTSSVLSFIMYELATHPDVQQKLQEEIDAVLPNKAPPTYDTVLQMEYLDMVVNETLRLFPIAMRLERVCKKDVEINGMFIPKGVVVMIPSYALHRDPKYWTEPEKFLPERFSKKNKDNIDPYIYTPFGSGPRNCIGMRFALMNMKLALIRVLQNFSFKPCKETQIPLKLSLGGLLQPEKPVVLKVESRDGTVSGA

Cc1nnc(-c2cnn(-c3ccccc3)c2N)n1Cc1ccccc1
AC50 (Cytochrome P450 3A4): 25.1 µM (inconclusive) | AC50 (Cytochrome P450 2C9): 39.8 µM (inconclusive)

C/C(O)=C(/C#N)C(=O)Nc1cc(Br)ccc1Br
AC50 (Cytochrome P450 3A4): 15.8 µM (inconclusive)

CCOc1ccc(NC(=O)Nc2cc(C)ccc2OC)cc1
EC50 [1]: > 53 µM (inactive) | IC50 [2]: > 47.1 µM (inactive)

CC(C)CNS(=O)(=O)c1cc(C(=O)N2CC(C)OC(C)C2)c(Cl)cc1Cl (configuration not stated)
AC50 (Cytochrome P450 2C9): 25.1 µM (inconclusive) | AC50 (Cytochrome P450 2C19; read-out: AC50): 25.1 µM (inconclusive)

O=C(/C=C\c1ccc(-c2cccc([N+](=O)[O-])c2)o1)N1CCOCC1
EC50 [3]: > 38 µM (not active) | EC50 [4]: > 150 µM (inactive)

Cc1cc(OCc2nc(N)nc(N)c2-c2ccc(Cl)c(Cl)c2)ccc1[N+](=O)[O-]
AC50 (Cytochrome P450 3A4): 3.98 µM (inconclusive) | AC50 (Cytochrome P450 1A2): 5.01 µM (inconclusive)

CN1CCN(c2ncc3nc(-c4cc(F)cc(F)c4)c(=O)n(CCC#N)c3n2)CC1
AC50 (Cytochrome P450 3A4): 15.8 µM (inconclusive) | AC50 (Cytochrome P450 2C9): 31.6 µM (inconclusive) | AC50 (Cytochrome P450 1A2): 15.8 µM (inconclusive)

CCN(CC(=O)Nc1c(F)cccc1F)C(=O)c1ccc2c(=O)n3c(nc2c1)CCC3
EC50 [1]: > 53 µM (inactive) | IC50 [2]: > 47.1 µM (inactive)

Cc1ccc(NC(=O)COC(=O)CCC(=O)c2cccs2)c(Br)c1
EC50 [1]: > 53 µM (inactive) | IC50 [2]: > 47.1 µM (inactive)

COc1cccc(Cn2c(=O)c(-c3cccs3)nc3cnc(N(C)C)nc32)c1
AC50 (Cytochrome P450 3A4): 15.8 µM (inconclusive) | AC50 (Cytochrome P450 1A2): 15.8 µM (inconclusive) | AC50 (Cytochrome P450 2C19; read-out: AC50): 0.00631 µM (inconclusive)

NC(=O)c1ccc(NCC2COc3ccccc3O2)c([N+](=O)[O-])c1 (configuration not stated)
EC50 [1]: > 53 µM (inactive) | IC50 [2]: > 47.1 µM (inactive)

O=C(Nc1cccc(O)c1)c1ccc(NC(=O)c2cccs2)cc1
EC50 [1]: > 53 µM (inactive) | IC50 [2]: > 47.1 µM (inactive)

CCC(C)NS(=O)(=O)c1ccc(OCC(=O)Nc2ccc3c(c2)OCCO3)cc1 (configuration not stated)
AC50 (Cytochrome P450 3A4): 15.8 µM (inconclusive) | AC50 (Cytochrome P450 2C19; read-out: AC50): 7.08 µM (inconclusive)

COc1ccccc1C(=O)O/N=C1/CCCc2c1ccc(OC)c2[N+](=O)[O-]
AC50 (Cytochrome P450 3A4): 22.4 µM (inconclusive)

COc1ccc(-n2c(=O)c(-c3cccs3)nc3cnc(Nc4ccccc4)nc32)cc1
AC50 (Cytochrome P450 1A2): 31.6 µM (inconclusive)

Cc1[nH]c(=O)[nH]c(=O)c1S(=O)(=O)N1CCCC(C(=O)N2CCN(c3ccccc3Cl)CC2)C1 (configuration not stated)
EC50 [1]: > 53 µM (inactive) | IC50 [2]: > 47.1 µM (inactive)

Cc1c(Nc2scc(-c3ccccc3)[n+]2-c2ccccc2)c(=O)n(-c2ccccc2)n1C
EC50 [3]: 0.111 µM (active) | EC50 [4]: 18 µM (active)

CCOC(=O)c1csc(Nc2nc3ccc(F)cc3s2)n1
EC50 (Streptococcus): 11.4 µM (active) | EC50 [5]: 5.24 µM (active)

Cc1ccccc1Cn1c(=O)sc2ccccc2c1=O
EC50 [1]: > 53 µM (inactive) | IC50 [2]: > 47.1 µM (inactive)

CC[N+](CC)(CC)CCOc1ccc(/C=C\c2ccccc2)cc1
AC50 (Cytochrome P450 1A2): 31.6 µM (inconclusive)

Cc1ccc(C(=O)CC(=O)c2ccc(C(C)(C)C)cc2)cc1
EC50 [3]: > 38 µM (not active) | EC50 [4]: > 160 µM (inactive)

CCN1CCN(C(=O)C2c3cc(OC)c(OC)cc3C(=O)N3CCc4ccccc4C23)CC1 (configuration not stated)
AC50 (Cytochrome P450 3A4): 28.2 µM (inconclusive) | AC50 (Cytochrome P450 2C19): inconclusive

C/C(CC(=O)Nc1ccc(Cl)c(C(F)(F)F)c1)=N\NC(=O)c1ccccc1O
EC50 (Streptococcus): 3.68 µM (active) | EC50 [5]: 2.77 µM (active)

Cc1ccc(S(=O)(=O)n2ccc(-c3cccc(OCc4c(F)cccc4Cl)c3)n2)cc1
AC50 (Cytochrome P450 3A4): 7.94 µM (inconclusive)

COc1ccccc1N(CC(=O)NCC1CCCO1)C(=O)CNS(=O)(=O)c1ccc(C)cc1 (configuration not stated)
AC50 (Cytochrome P450 2C9): 31.6 µM (inconclusive) | AC50 (Cytochrome P450 2C19; read-out: AC50): 35.5 µM (inconclusive)

Cc1ccc(C(=O)N2CCN(c3cc(O)nnc3-c3ccccc3)CC2)cc1
AC50 (Cytochrome P450 2C9): 31.6 µM (inconclusive)

O=C(c1ccc2c(=O)n(Cc3ccco3)c(=S)[nH]c2c1)N1CCN(c2ccccc2)CC1
AC50 (Cytochrome P450 2C9): 25.1 µM (inconclusive) | AC50 (Cytochrome P450 1A2): 3.16 µM (inconclusive)

C=CC/N=C1\CC(C)(C)CC(O)=C1C(=O)c1ccccc1
AC50 (Cytochrome P450 3A4): 25.1 µM (inconclusive)

Brc1ccc(CSc2nnc(-c3cnccn3)n2Cc2ccco2)cc1
EC50 [3]: 1.58 µM (active) | EC50 [4]: > 160 µM (inconclusive)

CC1CCN(CCOc2cc(Cl)ccc2Cl)CC1
AC50 (Cytochrome P450 2C9): 0.891 µM (inconclusive)

O=C(COC(=O)c1cnccn1)NCc1ccccc1
AC50 (Cytochrome P450 2C9): 12.6 µM (inconclusive) | AC50 (Cytochrome P450 2C19; read-out: AC50): 39.8 µM (inconclusive)

CC(C)CN1CC[C@@]2(CCCN(C(=O)c3csnn3)C2)C1
AC50 (Cytochrome P450 3A4): 20 µM (inconclusive)

CC(=O)NC(NC(C)=O)c1ccc(Br)cc1
AC50 (Cytochrome P450 1A2): 10 µM (inconclusive)

Cc1ccc(COc2coc(CO)cc2=O)cc1
AC50 (Cytochrome P450 1A2): 15.8 µM (inconclusive)

O=C1CCc2cc(S(=O)(=O)N3CCC(C(=O)NC4CCCCCCC4)CC3)ccc2N1
EC50 [1]: 34 µM (active) | IC50 [2]: > 47.1 µM (inactive)

CC#CCCCC(=O)Nc1ccccc1C(=O)O
EC50 [1]: > 53 µM (inactive) | IC50 [2]: > 47.1 µM (inactive)

Cc1cc(C)n(C(=O)CNC(=O)c2ccccc2Br)n1
EC50 [1]: > 53 µM (inactive) | IC50 [2]: > 47.1 µM (inactive)

Cc1cc(C(=O)N[C@@H](c2ccccc2)[C@]2(C)C[C@H]2[C@@H](C)C(=O)Nc2ccc3ccccc3c2)n(C)n1
AC50 (Cytochrome P450 1A2): 12.6 µM (inconclusive)

COc1ccc(NC(=O)c2cc(S(=O)(=O)N3CCS(=O)(=O)CC3)ccc2Cl)cc1
AC50 (Cytochrome P450 3A4): 14.1 µM (inconclusive)

CCOC(=O)c1sc(NC(=O)C(C)(C)C)cc1C
EC50 [6]: 13 µM (active)

Cc1cccc(C)c1NC(=S)NC(=O)CCc1ccccc1
AC50 (Cytochrome P450 2C9): 25.1 µM (inconclusive) | AC50 (Cytochrome P450 1A2): 22.4 µM (inconclusive)

N=C(N)NCc1cccc(I)c1 [IOBENGUANE]
AC50 (Cytochrome P450 1A2): 12.6 µM (inconclusive)

COc1ccccc1CN1CCCC2(CCN(C(=O)Oc3ccccc3)CC2)C1
AC50 (Cytochrome P450 3A4): 15.8 µM (inconclusive)

Cc1cccc2c1Oc1ccccc1[C@@H]2NC(=O)c1ccc([N+](=O)[O-])cc1
AC50 (Cytochrome P450 2C9): 7.94 µM (inconclusive)

O=c1c(-c2cc(F)cc(F)c2)nc2cncnc2n1Cc1ccccc1Cl
AC50 (Cytochrome P450 3A4): 15.8 µM (inconclusive) | AC50 (Cytochrome P450 1A2): 5.01 µM (inconclusive)

COc1cccc(CN(C(=O)c2cc3ccccc3oc2=O)C2CC2)c1
EC50 [3]: > 38 µM (not active) | EC50 [4]: 18.6 µM (inconclusive)

Cc1ccccc1CN1C2=NCCN2C(=O)C2=C1CCN(Cc1ccccc1)C2
AC50 (Cytochrome P450 3A4): 3.98 µM (inconclusive)

COc1cccc(Cn2c(=O)c(-c3cccs3)nc3cnc(Nc4cccc(OC)c4)nc32)c1
AC50 (Cytochrome P450 3A4): 12.6 µM (inconclusive) | AC50 (Cytochrome P450 2C9): 0.794 µM (inconclusive) | AC50 (Cytochrome P450 1A2): 2.51 µM (inconclusive)

CCC(=O)Nc1cccc(NC(=O)c2cccc([N+](=O)[O-])c2)c1
AC50 (Cytochrome P450 2C9): 17.8 µM (inconclusive) | AC50 (Cytochrome P450 2C19): inconclusive

O=C(NC(=S)N1CCN(c2nc(-c3ccccc3)cs2)CC1)c1cncc(Br)c1
EC50 (Streptococcus): 3.91 µM (active) | EC50 [5]: 3.04 µM (active)

C=CCNC(S)=NNc1ncnc2sc3c(c12)CC(C)(C)OC3
AC50 (Cytochrome P450 3A4): 17.8 µM (inconclusive) | AC50 (Cytochrome P450 2C9): 8.91 µM (inconclusive) | AC50 (Cytochrome P450 1A2): 12.6 µM (inconclusive) | AC50 (Cytochrome P450 2C19; read-out: AC50): 8.91 µM (inconclusive)

CCCCNC(=O)c1cn(C)c2ccc(S(=O)(=O)N3CCCC3)cc2c1=O
EC50 [4]: > 150 µM (inactive)

O=C(Nc1cccc(C(F)(F)F)c1)c1cccnc1
EC50 [3]: 4.39 µM (active) | EC50 [4]: > 160 µM (inactive)

From ChEMBL document CHEMBL1201862, “PubChem BioAssay data set” (2004)
